Test results published in patent US5718900A, “Vaccines and methods for preventing and treating Fescue toxicosis in herbivores” (priority 1994, dated 1998).
Structures can show the parent of a compound that is named as a salt.

Assays:
[1] = system: monoclonal antibody 15F3.E5; experiment: Cross-reactivity of the monoclonal antibody, competitive ELISA on PLL-lysergic acid coated plates; type: binding, mouse; conditions: for IC50: antibody diluted 1:50, pre-incubated 1 h with lysergic acid derivative, absorbance at 405 nm, read-out: Molar Concentration at 50% Maximum Absorbance; for cross reaction of 15F3.E5 with lysergic acid derivative: at the concentrations tested
Protocol: Mouse monoclonal antibody was diluted 1:50 in ELISA diluent. Working dilutions of various lysergic acid derivatives ranging between 1.78×10^-6 to 3.93×10^-15 M were made in 1:10 increments in PBS and 50 uL aliquots were pre-incubated for 1 h with 50 uL of diluted antibody at room temperature. To determine presence of unbound antibody, pre-incubated antibody/lysergic derivatives were transferred to ELISA plates pre-coated with PLL-lysergic acid for 2 h at room temperature. After washing, ELISA plates were treated with 1:500 dilution of rabbit derived antimouse antibody conjugated to alkaline phosphatase:ELISA diluent for 2 h at room temperature and washed. Fifty microliters of alkaline phosphate substrate was added to each well and the characteristic yellow color indicating binding of mouse antibody to the PLL-lysergic acid measured at 405 nm on a Titertek Multiskan Model MCC/340 plate reader.

Angus steers = conditions: literature report; cited from earlier work
fescue toxicosis = conditions: literature report; cited from earlier work

Row | Structure (SMILES) | IC50 [1] | cross reaction of 15F3.E5 with lysergic acid derivative [1] | other results
1 | CC(C)C[C@H]1C(=O)N2CCC[C@H]2[C@]2(O)O[C@](NC(=O)[C@@H]3C=C4c5cccc6[nH]c(Br)c(c56)C[C@H]4N(C)C3)(C(C)C)C(=O)N12 [2-bromo-a-ergocryptine] | > 1330 nM | – | –
2 | C[C@@H](CO)NC(=O)[C@@H]1C=C2c3cccc4[nH]cc(c34)C[C@H]2N(C)C1 [Ergonovine] | 1.69 nM | cross reaction | –
3 | CN1C[C@H](C(=O)N[C@]2(C)O[C@@]3(O)[C@@H]4CCCN4C(=O)[C@H](Cc4ccccc4)N3C2=O)C=C2c3cccc4[nH]cc(c34)C[C@H]21 [Ergotamine tartrate] | 7.69 nM | cross reaction | –
4 | CC(C)[C@H]1C(=O)N2CCC[C@H]2[C@]2(O)O[C@@](C)(NC(=O)[C@@H]3C=C4c5cccc6[nH]cc(c56)C[C@H]4N(C)C3)C(=O)N12 [Ergovaline] | – | cross reaction | –
5 | CN1C[C@H](C(=O)O)C=C2c3cccc4[nH]cc(c34)C[C@H]21 [Lysergic Acid] | 0.0373 nM | cross reaction | –
6 | CN1C[C@H](CO)C=C2c3cccc4[nH]cc(c34)C[C@H]21 [Lysergol] | – | cross reaction | –
7 | CC(C)C1C(=O)N2CCCC2C2(O)OC(NC(=O)C3CC4c5cccc6[nH]cc(c56)CC4N(C)C3)(C(C)C)C(=O)N12 (stereo not shown) [dihydro-ergocornine] | > 1680 nM | – | –
8 | CC(C)[C@@]1(NC(=O)[C@@H]2C[C@@H]3c4cccc5[nH]cc(c45)C[C@H]3N(C)C2)O[C@@]2(O)[C@@H]3CCCN3C(=O)[C@H](Cc3ccccc3)N2C1=O [dihydro-ergocristine] | > 1780 nM | – | –
9 | CCN(CC)CCNC(=O)c1cc(Cl)c(N)cc1OC [metoclopramide] | – | – | effect on serum prolactin, weight gains and hair coats (Angus steers): increased serum prolactin and weight gains
10 | Cc1ncc(C[n+]2csc(CCO)c2C)c(N)n1 [thiamine] | – | – | effect on symptoms of fescue toxicosis (fescue toxicosis): partially alleviated symptoms
